Data as given in the METLIN SMRT retention time set (Domingo-Almenara et al. 2019).

Test: gradient 5% acetonitrile 3 min, to 50% in 2 min, to 85% in 15 min, held 3 min, 100 µL/min
Details: column: Zorbax Extend-C18 2.1 x 50 mm; eluents: water / acetonitrile, 0.1% formic acid
How it was run: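 In both positive and negative ionization mode, a quadrupole time-of-flight mass spectrometer coupled to HPLC analyzed pure standards run in mixtures of ~100 molecules. The Zorbax Extend-C18 column (2.1 × 50 mm, 1.8 μm) was operated at 100 μL/min with water and acetonitrile, each containing 0.1% formic acid. The dead volume was 40 μL and the dwell volume 900 μL. Retention time came from adduct peaks that were computationally picked and individually inspected by hand.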

RP-LC retention time [s]	SMILES
949	Cc1[nH]c(C(=O)Nc2ccc(F)cc2F)c(C)c1S(=O)(=O)N1CCCCC1
729	O=C1NC2(CCN(C(=O)c3ccccc3)CC2)Nc2cc(Cl)ccc21
1010	CCOc1ccc(CCNC(=O)c2cc(S(=O)(=O)N3CCCCC3)c(C)n2C)cc1OCC
768	COc1ccc(CC(=O)N2C[C@@H]3C[C@H]2C[C@@H]3NS(=O)(=O)c2ccccc2)cc1
710	CCC(=O)Nc1ccc(-n2cnc(C(=O)NC3CCC(C)CC3)c2)nc1 (stereo not drawn)
605	Cc1cnc(C(=O)N2CCC3(CCC3O)CC2)cn1 (stereo not drawn)
720	CCNC(=O)C1=CCN(C(=O)c2cc(C)cc(C)c2)CC1
605	Cc1nc2cccnc2n1C1CCN(C(=O)Nc2ccccc2F)CC1
847	CCOC(=O)N1CCN(Cc2nc(-c3ccc(N4CCC(C)CC4)nc3)no2)CC1
918	CCN1C(=O)c2cccnc2Sc2cc(NC(=O)c3ccc(C)c(C)c3)ccc21
771	COc1cccc(NC(=O)N2CCc3cn(C)c4cccc(c34)C2)c1
584	CC(=O)c1ccc(Nc2c(C(=O)N3CCCC3)cnc3nc(C)ccc23)cc1
575	Cc1ccc(NC(=O)C(=O)NCC2(O)CCOCC2)cc1N1CCCC1=O
653	Cn1nc(C(=O)N2CCCC2)c2c1CCN(C(=O)CCC(=O)N1CCCCC1)C2
637	O=C(c1ccc(Cl)cc1)N1CCCCC1CCN1CCOCC1 (stereo not drawn)
736	COCCc1noc(C2CN(C(=O)C3COc4ccccc4O3)C2)n1 (stereo not drawn)
772	CC(=O)c1cccc(C(=O)N2CCC3(CC2)N=C(c2ccc(C)cc2)NO3)c1
671	Cn1ccc2cc(S(=O)(=O)N3CCC(C(=O)N4CCN(Cc5ccccc5)CC4)CC3)ccc21
1080	COc1cc(C)c(C)cc1S(=O)(=O)Nc1ccc(Cl)c(N2CCCS2(=O)=O)c1
617	CCNc1ncnc2sc3c(c12)CCN(C(=O)CC)C3

RP-LC retention time [s]	SMILES
765	O=C(Nc1cc(-c2ccccn2)no1)C1CCCC1
953	CCOc1ccc(S(=O)(=O)N2CCC(C(=O)NCCC3=CCCCC3)CC2)cc1
928	COc1ccccc1OCC1c2ccsc2CCN1C(=O)CN(CC1CC1)C(=O)C1CC1 (stereo not drawn)
764	CC(CNC(=O)C1CCN(S(=O)(=O)c2cn(C(C)C)cn2)CC1)c1ccccc1 (stereo not drawn)
935	O=C(c1nc(-c2cccs2)cs1)N1CCCC1
613	O=C(NCc1cccnc1)C1CC(=O)N(CCc2c[nH]c3ccc(Cl)cc23)C1 (stereo not drawn)
677	CC(C)Cc1nc2cccnc2n1C1CCN(C(=O)Nc2ccccc2)CC1
588	O[C@@H]1C[C@@H](c2nnc3n2CCN(Cc2cccc(F)c2)C3)N(Cc2cccnc2)C1
1210	CC1CCC(NC(=O)c2nnc(-c3ccc(S(=O)(=O)N4CCC(C)CC4)cc3)o2)CC1 (stereo not drawn)
773	COc1cccc(NC(=O)N2CCC[C@@H]2C(=O)NCc2csc(-c3cccs3)n2)c1
963	Cc1nn(-c2ccccc2)c(C)c1S(=O)(=O)N1CCC(C(=O)NCc2ccccc2Cl)CC1
696	O=C(Nc1cccn2c(C3CCC3)nnc12)c1ccco1
661	Cc1ncsc1C1N(C2CCN(C(=O)C3CCC3)CC2)C(=O)C12CCCC2 (stereo not drawn)
707	O=C(CCCc1nc2cccnc2n1Cc1ccc(F)cc1)N1CCCC1
696	CN(CC1(C)CCOCC1)C(=O)c1ccc2cc[nH]c2c1
760	Cc1nc(-c2csc(S(=O)(=O)N3CCC(C(=O)N4CCCC4)CC3)c2)no1
770	Cn1cc(S(=O)(=O)N2CCC(C(=O)N3CCCCCC3)CC2)cc1C(=O)N1CCCCC1
1020	O=C(c1ccco1)N1CCCC1c1nc(-c2cccc(C(F)(F)F)c2)no1 (stereo not drawn)
680	CCOc1ccc(S(=O)(=O)N2CCC(C(=O)NCc3ccccn3)CC2)cc1C

More lines, now with the values behind:

SMILES	RP-LC retention time [s]
Cc1cccc(N2C(=O)CN(Cc3ccccc3F)[C@H]3CS(=O)(=O)C[C@H]32)c1	803
CCNC(=O)c1cnn(-c2cc(-c3nc(CC)no3)ccn2)c1C	806
Cn1cc(CC(=O)NCc2ccc(F)cc2)c2cccnc21	669
O=C(Nc1ccc(F)cc1F)Nc1nccn(-c2ccc(F)cc2)c1=O	942
Cc1noc(C)c1-c1ccc(S(=O)(=O)Nc2cccc(Cl)c2)cc1	966
CCn1cc(C(=O)Nc2cccc(OC)c2)c2cccnc21	809
COc1ccc(Nc2c(-c3ccc(N4CCOCC4)cc3)nc3ncccn23)cc1	654
CCC(C)NC(=O)c1cn(-c2ccc(-c3nc(C(C)C)no3)cn2)cn1 (stereo not drawn)	899
CSc1ccc(CNC(=O)Cn2c(=O)c3cccn3c3ccc(F)cc32)cc1	861
COc1ccc(CNC(=O)NCCc2cn(C)c3ncccc23)cc1	649
CCS(=O)(=O)c1ccc2c(c1)N(Cc1nc(-c3ccc(OC(F)(F)F)cc3)no1)C(=O)CO2	1030
O=C1CCc2cc(NS(=O)(=O)Cc3cccc(Cl)c3)ccc2N1	938
CC(C)C(=O)Nc1ccc(-n2cnc(C(=O)NCc3ccccc3)c2)nc1	738
CSc1ccc(CNC(=O)CCc2nnc3c4cc(-c5ccccc5)nn4ccn23)cc1	780
O=C(c1ccc(C(F)(F)F)cc1)N1CCc2nc(-c3ccc(Cl)cc3)ncc2C1	1170
Cc1ccc(NS(=O)(=O)c2ccc(-c3c(C)noc3C)cc2)cc1Cl	1040
Cc1cc(C(=O)NCc2ccc(C)o2)c2cc(Br)ccc2n1	801
Cc1cccc(-c2noc(Cn3ncn4nc(-c5ccc(Br)cc5)cc4c3=O)n2)c1	1260
CCCCNC(=O)Cn1c(N)nc(CC)cc1=O	579
COCCc1noc(-c2cnc3nc(C)ccc3c2Nc2ccc(F)cc2)n1	688
O=c1c2nc(-c3cccc(Cl)c3)cn2ccn1-c1cccc(F)c1	871
O=C1CCc2cc(NS(=O)(=O)/C=C/c3ccccc3)ccc2N1	681
c1ccc(-c2nnc3sc(-c4ccc5c(c4)OCO5)nn23)nc1	759
CC(C)CCNC(=O)C1(C)CN(S(=O)(=O)c2ccccc2)CC(=O)N1c1cccc(F)c1 (stereo not drawn)	953
Fc1ccc(-c2nc3cnccn3c2Nc2ccc(Cl)cc2)cc1	936
Cc1cc(C)n(CCNC(=O)CSCc2ccccc2)n1	683
Cc1nc2c(NC(=O)NCc3ccccc3)cccn2n1	707
Cc1nnc(CNC(=O)CCc2c[nH]c3ccccc23)o1	622
COc1cc(CC(=O)N2CCc3cc(-c4cc(C)no4)ccc32)cc(OC)c1	951
